In PMC8661056, “Synthesis and Evaluation of [^11C]7-Halogen-2-Phenyl Isoindolone Derivatives: Potential PET Radioligands for in vivo Imaging of 5-HT2C Receptors” (Frontiers in Neuroscience, 2021):

How the values were obtained:
5-HT2CR [1] = test system: 5-HT2CR; parameters: method as in Neelamegam et al., 2014; conditions: PET imaging; ref Neelamegam et al., 2014; cited from earlier work
[2] = lipophilicity, octanol/phosphate buffer partition; format: physicochemical; conditions: pH 7.4, read-out: log P7.4
Protocol: [^11C]6 and [^11C]9 were prepared via O-methylation of 10 and 11 with [^11C]CH3I in the presence of 0.1 M Bu4NOH in DMF followed by HPLC purification, respectively. [^11C]6 and [^11C]9 were obtained in an average radiochemical yield of 37–44 ± 4% (n = 10, decay corrected) with ≥97% radiochemical and chemical purity. The total synthesis time was 50 ± 5 min end of bombardment and the specific activity were in the range of 0.5–1.2 Ci/μmol at time of injection. The lipophilicities of 6 and 9 (octanol/phosphate buffer partition) were measured. The log P7.4 values of [^11C]6 and [^11C]9 are 2.81 and 2.89, respectively, which are in the optimal range (1.0–3.0) for compounds expected to enter the brain readily.

5-HT2CR [3] = biological target: T1, 5-HT2CR (Rattus norvegicus, UniProt P08909); assay: microPET/CT brain imaging in rats; format: in vivo, Sprague–Dawley rats; conditions: for effect of pretreatment with SB-242084 on uptake: 0.1 mg/kg SB-242084 prior to injection; for ratio of uptake in choroid plexus to cerebellum, peak / ratio of uptake in hippocampus to cerebellum, peak: i.v., baseline, from time-activity curves
T1 construct: from tissue; host or cells: brain of living Sprague–Dawley rats (choroid plexus, hippocampus)
T1 sequence (P08909 33-460): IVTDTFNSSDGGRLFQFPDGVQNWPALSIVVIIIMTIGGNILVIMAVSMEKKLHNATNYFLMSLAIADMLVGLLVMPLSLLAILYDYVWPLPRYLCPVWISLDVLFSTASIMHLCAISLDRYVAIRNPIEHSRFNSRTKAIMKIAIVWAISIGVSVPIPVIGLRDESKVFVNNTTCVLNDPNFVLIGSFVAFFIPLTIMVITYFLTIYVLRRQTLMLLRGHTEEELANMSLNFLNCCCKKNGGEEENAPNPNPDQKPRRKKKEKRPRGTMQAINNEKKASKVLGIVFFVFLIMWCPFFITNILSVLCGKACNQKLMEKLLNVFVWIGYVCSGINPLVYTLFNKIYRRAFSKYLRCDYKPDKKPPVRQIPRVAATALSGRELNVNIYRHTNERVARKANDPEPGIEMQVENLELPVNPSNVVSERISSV
Protocol: [^11C]6 and [^11C]9 were intravenously administered to Sprague–Dawley rats and brain images were acquired with a Siemens Inveon microPET/CT imaging system, respectively (Figure 2).
FIGURE 2 PET analysis of [^11C]6 and [^11C]9 in Sprague–Dawley rats. (A) Summed images of [^11C]6 PET/CT data from 10 to 120 min p.i. at baseline. Orange arrows depict choroid plexus; Blue arrows depict hippocampus. (B) Summed images of [^11C]6 PET/CT data from 10 to 120 min p.i. after pretreatment with 0.1 mg/kg of SB-242084. (C) Mean (n = 3) time-activity curves for brain regions of interest of [^11C]6 at baseline with standard error. (D) Mean (n = 3) time-activity curves for brain regions of interest of [^11C]6 after pretreatment with 0.1 mg/kg of SB-242084 with standard error. (E) Mean (n = 3) time-activity curves for brain regions of interest of [^11C]9 at baseline with standard error. (F) Mean (n = 3) time-activity curves for brain regions of interest of [^11C]9 after pretreatment with 0.1 mg/kg of SB-242084 with standard error.

5-HT2CR [4] = assay: microPET brain imaging in rhesus monkeys; format: in vivo; conditions: rhesus monkey; for effect of pretreatment with SB-242084 on uptake in choroid plexus and hippocampus: target 0.1 mg/kg SB-242084 30 min prior to injection (soluble dose likely much less)
Excerpt: [^11C]6 and [^11C]9 were further evaluated in rhesus monkeys using a Siemens MicroPET Focus 220 scanner (Figure 3). […] Ratios of uptake in choroid plexus, hippocampus, amygdala, frontal cortex to that in cerebellum peaked at 2.7, 1.6, 1.3, and 1.1, respectively.
FIGURE 3 PET-MRI analysis of [^11C]6 and [^11C]9 in rhesus monkey. (A) MicroPET images of [^11C]6 (left) and corresponding fused PET/MRI images summed over all time at baseline. (B) MicroPET images [^11C]6 (left) and corresponding fused PET/MRI images summed over all time after pretreatment with 0.1 mg/kg of SB-242084. (C) Time-activity curves of [^11C]6 for brain regions of interest at baseline study. (D) Time-activity curves of [^11C]6 for brain regions after pretreatment with SB-242084. (E) Time-activity curves of [^11C]9 for brain regions of interest at baseline study. (F) Time-activity curves of [^11C]9 for brain regions after pretreatment with SB-242084.
To test specific binding of [^11C]6 and [^11C]9 to the choroid plexus and hippocampus, an in vivo microPET blocking study was performed with 0.1 mg/kg SB-242084 30 min prior to injection, respectively. Unfortunately, due to the unexpected low solubility of SB-242084 in the injection form (10% ethanol in saline), the administered SB-242084 in soluble form to the monkeys was likely much less than the target 0.1 mg/kg. As a result, the uptake of [^11C]6 and [^11C]9 in the choroid plexus and hippocampus was still present.

5-HT5–7 = assay: competition binding assay (NIMH PDSP), 5-HT5–7; conditions: read-out: Binding affinity Ki, 5-HT5–7
5-HT2A [5] = biological target: T2, 5-HT2A (Homo sapiens, UniProt P28223); assay: competition binding assay (NIMH PDSP), 5-HT2A; conditions: read-out: Binding affinity Ki, 5-HT2A
T2 sequence (P28223 whole entry, species assumed): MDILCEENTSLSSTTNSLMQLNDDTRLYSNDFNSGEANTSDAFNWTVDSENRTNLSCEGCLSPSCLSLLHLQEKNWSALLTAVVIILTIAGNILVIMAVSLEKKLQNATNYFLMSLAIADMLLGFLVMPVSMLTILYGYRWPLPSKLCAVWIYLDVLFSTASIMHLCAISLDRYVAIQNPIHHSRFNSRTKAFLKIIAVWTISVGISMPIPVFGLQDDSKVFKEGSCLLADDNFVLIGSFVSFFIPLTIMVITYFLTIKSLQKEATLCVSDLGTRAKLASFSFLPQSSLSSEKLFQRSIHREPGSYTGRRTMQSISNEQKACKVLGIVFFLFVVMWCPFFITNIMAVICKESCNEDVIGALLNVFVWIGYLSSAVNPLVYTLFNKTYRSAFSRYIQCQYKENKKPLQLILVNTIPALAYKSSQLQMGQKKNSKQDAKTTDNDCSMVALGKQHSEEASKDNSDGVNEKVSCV

5-HT2B = 5-HT2B (Homo sapiens, UniProt P41595); assay: competition binding assay (NIMH PDSP), 5-HT2B; conditions: mean of three experiments ± SD, read-out: Binding affinity Ki, 5-HT2B
5-HT2B, sequence (P41595 whole entry, species assumed): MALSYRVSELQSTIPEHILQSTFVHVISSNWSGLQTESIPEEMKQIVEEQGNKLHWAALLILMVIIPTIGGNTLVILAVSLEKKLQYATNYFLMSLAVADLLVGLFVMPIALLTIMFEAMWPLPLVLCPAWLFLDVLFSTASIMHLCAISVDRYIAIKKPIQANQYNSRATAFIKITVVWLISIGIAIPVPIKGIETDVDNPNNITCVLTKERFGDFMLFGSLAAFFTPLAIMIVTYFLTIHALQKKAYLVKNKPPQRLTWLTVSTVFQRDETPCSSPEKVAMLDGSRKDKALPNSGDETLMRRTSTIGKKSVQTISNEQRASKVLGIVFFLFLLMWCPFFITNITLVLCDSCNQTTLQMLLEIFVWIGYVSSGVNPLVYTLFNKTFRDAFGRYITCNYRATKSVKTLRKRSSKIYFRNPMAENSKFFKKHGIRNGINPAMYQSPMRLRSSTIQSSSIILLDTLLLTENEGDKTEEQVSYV

5-HT2C = biological target: T3, 5-HT2C (Homo sapiens, UniProt P28335); assay: 5-HT2C competition binding assay with [^3H]mesulergine (NIMH PDSP); conditions: for Ki: competition with [^3H]mesulergine, mean of three experiments ± SD, read-out: Binding affinity Ki, 5-HT2C
T3 sequence (P28335 33-458): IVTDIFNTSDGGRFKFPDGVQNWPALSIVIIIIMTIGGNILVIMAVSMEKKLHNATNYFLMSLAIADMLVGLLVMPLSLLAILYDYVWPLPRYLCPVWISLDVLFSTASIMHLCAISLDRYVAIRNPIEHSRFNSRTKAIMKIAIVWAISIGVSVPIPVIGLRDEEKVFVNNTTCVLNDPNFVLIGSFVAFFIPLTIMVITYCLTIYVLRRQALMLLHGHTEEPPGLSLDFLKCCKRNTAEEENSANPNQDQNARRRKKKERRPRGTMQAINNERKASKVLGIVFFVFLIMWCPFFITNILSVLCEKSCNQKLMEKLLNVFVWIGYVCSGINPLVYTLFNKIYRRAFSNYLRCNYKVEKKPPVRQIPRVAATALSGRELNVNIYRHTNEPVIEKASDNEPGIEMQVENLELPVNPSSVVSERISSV
Excerpt: (§1) We selected 6 and 9 for carbon-11 radiolabelling and PET imaging studies.

5-HT2A [6] = biological target: T2, 5-HT2A; assay: primary binding, 5-HT2A
Excerpt: as §1

[7] = parameters: method as in Hamprecht et al., 2007; conditions: ref Hamprecht et al., 2007; cited from earlier work
5-HT1A = biological target: T4, 5-HT1A (Homo sapiens, UniProt P08908); assay: competition binding assay (NIMH PDSP), 5-HT1A; conditions: read-out: Binding affinity Ki, 5-HT1A
T4 sequence (P08908 1-422): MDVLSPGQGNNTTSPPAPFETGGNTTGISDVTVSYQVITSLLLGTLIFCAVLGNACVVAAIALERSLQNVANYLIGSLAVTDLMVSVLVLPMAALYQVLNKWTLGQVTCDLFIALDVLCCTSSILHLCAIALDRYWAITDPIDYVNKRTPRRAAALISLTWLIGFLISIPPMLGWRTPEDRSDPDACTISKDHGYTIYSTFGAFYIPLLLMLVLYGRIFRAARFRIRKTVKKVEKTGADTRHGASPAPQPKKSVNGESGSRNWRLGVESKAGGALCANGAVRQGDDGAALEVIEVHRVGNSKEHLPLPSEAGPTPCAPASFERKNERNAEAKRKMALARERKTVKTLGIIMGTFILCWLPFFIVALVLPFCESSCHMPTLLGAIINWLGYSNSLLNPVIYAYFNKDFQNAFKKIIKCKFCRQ

D1-D5 = assay: competition binding assay (NIMH PDSP), dopamine D1-D5; conditions: read-out: Binding affinity Ki, D1-D5
5-HT2CR [8] = test system: 5-HT2CR; parameters: method as in Zeng et al., 2018; conditions: rhesus monkeys; ref Zeng et al., 2018; cited from earlier work

c1cc2c3c(c1)[C@H]1CCC[C@H]1N3CCN[11CH2]2 [[^11C]WAY-163909]
non-specific binding in baboon brains (5-HT2CR [1]): high

CC1CCN(CCOc2cc(N3Cc4cccc(Cl)c4C3=O)ccc2O[11CH3])CC1 [[^11C]6, [^11C]7-Chloro-2-[4-methoxy-3-[2-(4-methylpiperidin-1-yl)ethoxy]phenyl]isoindolin-1-one]
logD [2]: 2.81 | effect of pretreatment with SB-242084 on uptake (5-HT2CR [3]): reduction of radioactivity uptake in choroid plexus and hippocampus to the same level as of the cerebellum | ratio of uptake in choroid plexus to cerebellum, peak (5-HT2CR [3]): 1.8 | ratio of uptake in hippocampus to cerebellum, peak (5-HT2CR [3]): 1.2 | blood-brain barrier penetration (5-HT2CR [4]): excellent | SUV in choroid plexus (peak uptake) (5-HT2CR [4]; baseline): 5.6 | SUV in hippocampus (5-HT2CR [4]; baseline): 4.6 | ratio of uptake in amygdala to cerebellum, peak (5-HT2CR [4]; baseline): 1.3 | ratio of uptake in choroid plexus to cerebellum, peak (5-HT2CR [4]; baseline): 2.7 | ratio of uptake in frontal cortex to cerebellum, peak (5-HT2CR [4]; baseline): 1.1 | ratio of uptake in hippocampus to cerebellum, peak (5-HT2CR [4]; baseline): 1.6 | time of peak radioactivity uptake in choroid plexus (5-HT2CR [4]; baseline, after injection): 20 to 30 min | time of peak uptakes in hippocampus, amygdala, frontal cortex and cerebellum (5-HT2CR [4]; baseline, postinjection): 9.5 to 18.5 min | effect of pretreatment with SB-242084 on uptake in choroid plexus and hippocampus (5-HT2CR [4]): a reduction in the uptake and faster washout

COc1ccc(N2Cc3cccc(Cl)c3C2=O)cc1OCCN1CCC(C)CC1 [Compound 6, 7-chloro-2-[4-methoxy-3-[2-(4-methylpiperidin-1-yl)ethoxy]phenyl]isoindolin-1-one]
Ki (5-HT5–7): > 1 µM | Ki (5-HT2A [5]): > 1 µM | Ki (5-HT2B): 0.194 ± 0.074 µM | Ki (5-HT2C): 0.0022 ± 0.0003 µM | 5-HT2C binding less than that for 9 (5-HT2C; relative to compound 9): 2–3 times | primary bindings at 5-HT2A (5-HT2A [6]): < 50% | brain permeability as measured by brain to blood plasma ratio [7]: great | Ki (5-HT1A): > 1 µM | Ki (D1-D5): > 1 µM

COc1ccc(N2Cc3cccc(I)c3C2=O)cc1OCCN1CCC(C)CC1 [Compound 9, 7-iodo-2-[4-methoxy-3-[2-(4-methylpiperidin-1-yl)ethoxy]phenyl]isoindolin-1-one]
Ki (5-HT5–7): > 1 µM | Ki (5-HT2A [5]): > 1 µM | Ki (5-HT2B): 0.126 ± 0.028 µM | Ki (5-HT2C): 0.0011 ± 0.0003 µM | primary bindings at 5-HT2A (5-HT2A [6]): < 50% | Ki (5-HT1A): > 1 µM | Ki (D1-D5): > 1 µM

Cc1ccc2c(C(=O)Nc3ccc(Oc4cccnc4C)nc3)c[nH]c2c1 [[^11C]5, 6-methyl-N-[6-[(2-methyl-3-pyridinyl)oxy]-3-pyridinyl]1H-indole-3-carboxamide]
level of specific binding in the choroid plexus (5-HT2CR [8]): high | overall brain uptake and retention (5-HT2CR [8]): low

CC1CCN(CCOc2cc(N3Cc4cccc(I)c4C3=O)ccc2O[11CH3])CC1 [[^11C]9, [^11C]7-iodo-2-[4-methoxy-3-[2-(4-methylpiperidin-1-yl)ethoxy]phenyl]isoindolin-1-one]
logD [2]: 2.89 | effect of pretreatment with SB-242084 on uptake (5-HT2CR [3]): reduction of radioactivity uptake in choroid plexus and hippocampus to the same level as of the cerebellum | ratio of uptake in choroid plexus to cerebellum, peak (5-HT2CR [3]): 1.9 | ratio of uptake in hippocampus to cerebellum, peak (5-HT2CR [3]): 1.3 | blood-brain barrier penetration (5-HT2CR [4]): excellent | SUV in choroid plexus (peak uptake) (5-HT2CR [4]; baseline): 2.01 | SUV in hippocampus (5-HT2CR [4]; baseline): 1.46 | ratio of uptake in choroid plexus to cerebellum, peak (5-HT2CR [4]; baseline): 3.7 | ratio of uptake in hippocampus to cerebellum, peak (5-HT2CR [4]; baseline): 2.7 | time of peak uptake in choroid plexus and hippocampus (5-HT2CR [4]; baseline, after injection): 25 to 55 min | effect of pretreatment with SB-242084 on uptake in choroid plexus and hippocampus (5-HT2CR [4]): a reduction in the uptake and faster washout

c1cc2c3c(c1)[C@H]1CCC[C@H]1CN3CCN[11CH2]2 [[^11C]Vabicaserin]
non-specific binding in baboon brains (5-HT2CR [1]): high

COc1ccc(N2Cc3cccc(F)c3C2=O)cc1OCCN1CCC(C)CC1 [Compound 8]
Ki (5-HT5–7): > 1 µM | Ki (5-HT2A [5]): > 1 µM | Ki (5-HT2B): 0.434 ± 0.204 µM | Ki (5-HT2C): 0.028 ± 0.014 µM | Ki (5-HT1A): > 1 µM | Ki (D1-D5): > 1 µM
